Patent publication US10519108B2, “Inhibitors of retinaldehyde dehydrogenases and methods of use” (The Board of Regents of the University of Oklahoma, priority 2015, dated 2019)

Legend:
[1] = molecular target: T1, aldehyde dehydrogenase 2 (ALDH2) (Homo sapiens, UniProt P05091); experiment: ALDH2 activity by NADH synthesis, absorbance at 340 nm; format: biochemical
T1 sequence (P05091 18-517): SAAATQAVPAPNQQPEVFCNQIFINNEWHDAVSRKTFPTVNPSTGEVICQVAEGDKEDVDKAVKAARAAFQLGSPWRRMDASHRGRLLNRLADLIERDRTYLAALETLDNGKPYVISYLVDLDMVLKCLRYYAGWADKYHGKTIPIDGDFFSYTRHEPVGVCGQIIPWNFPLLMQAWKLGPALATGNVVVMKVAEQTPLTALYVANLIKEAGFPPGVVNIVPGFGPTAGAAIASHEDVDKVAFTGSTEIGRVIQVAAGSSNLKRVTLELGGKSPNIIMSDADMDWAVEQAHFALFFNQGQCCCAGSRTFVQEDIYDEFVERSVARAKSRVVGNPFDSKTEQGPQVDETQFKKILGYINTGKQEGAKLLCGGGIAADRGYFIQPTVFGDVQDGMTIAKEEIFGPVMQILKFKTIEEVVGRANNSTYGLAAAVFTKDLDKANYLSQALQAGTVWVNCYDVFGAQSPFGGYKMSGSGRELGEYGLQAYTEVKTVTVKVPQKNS

spermatogenesis = conditions: cited from earlier work
[2] = molecular target: T2, retinaldehyde dehydrogenase 1 (RALDH1) (Homo sapiens, UniProt P00352); experiment: RALDH1 activity by NADH synthesis, fluorescence-based NADH sensor; format: biochemical; conditions: in the presence of DAR
T2 sequence (P00352 1-501): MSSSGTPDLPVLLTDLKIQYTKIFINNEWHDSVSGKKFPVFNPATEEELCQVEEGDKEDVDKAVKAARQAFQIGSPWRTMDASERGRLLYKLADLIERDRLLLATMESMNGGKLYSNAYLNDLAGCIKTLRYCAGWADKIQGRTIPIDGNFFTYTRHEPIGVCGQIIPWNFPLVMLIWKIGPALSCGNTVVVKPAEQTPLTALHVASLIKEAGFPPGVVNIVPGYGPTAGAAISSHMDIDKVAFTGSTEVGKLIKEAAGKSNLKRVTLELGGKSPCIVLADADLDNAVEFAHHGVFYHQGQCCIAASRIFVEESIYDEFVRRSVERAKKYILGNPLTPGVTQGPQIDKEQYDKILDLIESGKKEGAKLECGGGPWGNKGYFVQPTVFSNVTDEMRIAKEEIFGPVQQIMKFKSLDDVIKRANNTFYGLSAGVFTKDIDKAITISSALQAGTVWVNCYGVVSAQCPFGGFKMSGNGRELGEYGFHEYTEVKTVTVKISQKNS

RALDH2 = molecular target: T3, RALDH2 (Homo sapiens, UniProt O94788); experiment: RALDH2 activity by NADH synthesis, fluorescence-based NADH sensor; format: biochemical
T3 sequence (O94788 1-518): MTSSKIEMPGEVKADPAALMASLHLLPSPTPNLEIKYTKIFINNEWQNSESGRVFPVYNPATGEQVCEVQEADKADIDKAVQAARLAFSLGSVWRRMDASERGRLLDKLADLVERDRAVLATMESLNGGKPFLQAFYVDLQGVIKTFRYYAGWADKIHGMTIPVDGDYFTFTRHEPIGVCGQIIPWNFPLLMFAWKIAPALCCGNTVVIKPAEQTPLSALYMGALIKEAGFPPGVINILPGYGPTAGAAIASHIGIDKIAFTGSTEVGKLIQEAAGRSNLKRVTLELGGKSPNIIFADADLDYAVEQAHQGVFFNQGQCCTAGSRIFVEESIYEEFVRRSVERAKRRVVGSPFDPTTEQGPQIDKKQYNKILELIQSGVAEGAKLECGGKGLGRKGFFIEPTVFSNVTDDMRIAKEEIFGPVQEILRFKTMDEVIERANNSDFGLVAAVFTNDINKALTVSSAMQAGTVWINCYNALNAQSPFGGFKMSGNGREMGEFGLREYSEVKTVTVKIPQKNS

RALDH3 = molecular target: T4, RALDH3 (Homo sapiens, UniProt P47895); experiment: RALDH3 activity by NADH synthesis, fluorescence-based NADH sensor; format: biochemical; conditions: in the presence of DAR
T4 sequence (P47895 1-512): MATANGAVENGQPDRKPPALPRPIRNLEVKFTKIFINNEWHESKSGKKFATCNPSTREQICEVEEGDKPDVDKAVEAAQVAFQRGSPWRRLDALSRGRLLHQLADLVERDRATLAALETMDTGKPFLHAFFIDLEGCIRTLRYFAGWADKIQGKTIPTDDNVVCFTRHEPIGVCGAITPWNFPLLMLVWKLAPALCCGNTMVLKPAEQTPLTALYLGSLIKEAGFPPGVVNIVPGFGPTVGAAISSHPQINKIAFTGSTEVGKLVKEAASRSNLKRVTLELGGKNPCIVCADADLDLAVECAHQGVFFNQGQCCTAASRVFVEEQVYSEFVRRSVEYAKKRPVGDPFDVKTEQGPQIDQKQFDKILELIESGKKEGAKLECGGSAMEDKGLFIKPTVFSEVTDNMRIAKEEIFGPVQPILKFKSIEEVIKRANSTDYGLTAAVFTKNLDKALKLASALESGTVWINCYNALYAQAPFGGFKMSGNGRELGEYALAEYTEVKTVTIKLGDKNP

RALDH = RALDH activity in recovering choroid tissue homogenates, atRA synthesis by HPLC; format: biochemical; conditions: choroid cytosol fractions, DAR 5-25 μM, NAD 4 mM, all-trans-retinaldehyde 25 μM, 37° C. 30 min
Procedure: RALDH activity was assessed in choroid tissue homogenates in the presence of DAR (5-25 μM), or vehicle (EtOH) by measuring all-trans-retinoic acid (atRA) synthesis. Choroid cytosol fractions were incubated in the presence of cofactor NAD (4 mM) and all-trans-retinaldehyde (25 μM) at 37° C. for 30 min. Following incubation, retinoids were extracted and quantified using HPLC.

Compound	effect on ALDH2 assessed by NADH synthesis [1]	inhibition of spermatogenesis (spermatogenesis; human males)	reactions in patients who consumed alcohol (spermatogenesis; human, alcohol consumed while taking compound, due to inhibition of ALDH2)	activity of RALDH1 assessed by NADH synthesis [2]	IC50 (RALDH2; NADH synthesis, 95% C.I.=41.0-66.4 nM)	activity of RALDH2 assessed by NADH synthesis (RALDH2; in the presence of DAR, fluorescence-based NADH sensor)	activity of RALDH3 assessed by NADH synthesis (RALDH3)	retinoic acid (atRA) synthesis by RALDH (RALDH)
O=C(NCCCCCCCCNC(=O)C(Cl)Cl)C(Cl)Cl [WIN-18446]	non-specific ALDH2 inhibitor	potent, reversible inhibitor of spermatogenesis	violent “disulfiram” reactions					
CC1=C(/C=C/C(C)=C/C=C/C(C)=C/C(=O)C(Cl)Cl)C(C)(C)CCC1 [DAR, (3E,5E,7E,9E)-1,1-dichloro-4,8-dimethyl-10-(2,6,6-trimethylcyclohex-1-en-1-yl)deca-3,5,7,9-tetraen-2-one]	does not significantly inhibit			effectively inhibits	52.2 nM	effectively inhibits	effectively inhibits	significantly inhibited
